According to publication PMC11040352, “CD38‐Specific Gallium‐68 Labeled Peptide Radiotracer Enables Pharmacodynamic Monitoring in Multiple Myeloma with PET” (Advanced Science, 2024):
Where “and” joins values, the source holds several entries; their conditions need not be identical. Equal entries are not always repeated. Where two headings read alike, the source gives them in different places.

Key:
[1] = Octanol/PBS partition coefficient (LogD, pH 7.4); type: physicochemical
Method: Partition coefficients, logD (pH7.4) value, were determined according to a literature procedure.^[ [46] ^] Briefly, a 10 µL solution of [^68Ga]Ga‐AJ206 (around 10 µCi) was added to a solution of 1‐octanol (200 µL) mixed with phosphate buffered saline (PBS) (190 µL) in a 1.5 mL centrifuge tube. After the mixture was vigorously shaken and vortexed, it was centrifuged at 3000 rpm for 5 min. Aliquots (10 µL) were removed from the two phases, and the radioactivity was measured on an automated gamma counter (1282 Compugamma CS, Pharmacia/LKB Nuclear, Inc., Gaithersburg, MD). The logD was calculated as the average log ratio value of the radioactivity in the 1‐octanol fraction and the PBS fraction from the four samples.

MOLP8 tumor xenografts = experiment: Ex vivo biodistribution in mice with MOLP8 tumor xenografts; parameters: species or system NSG mice; details: MOLP8 xenograft mice
Method: (§1) Animal studies were performed under Johns Hopkins University Animal Care and Use Committee (ACUC‐approved protocol (Principal investigator: Sridhar Nimmagadda, Ph.D. and Protocol number M021M175). Male and female NSG mice (5‐6 weeks old) were used to establish xenografts by administering 3 million cells (50% Corning Matrigel) subcutaneously to form various tumor models within 3–4 weeks. Imaging or biodistribution studies (n = 3–5) were conducted on mice with tumor volumes of 100–200 mm^3. Disseminated tumor models were developed by injecting 4–5 million cells in saline intravenously for MOLP8 and MM1S‐Luc models (n = 4–5). Luciferase expressing MM1S cell line (MM1S‐Luc) was used to monitor cancer cell dissemination in the body. Tumor establishment was confirmed by injecting D‐Luciferin intraperitoneally (150 mg kg^−1) and imaged mice after 10 min in IVIS bioluminescence imaging system. Bone marrow tumors were ready for imaging after 25–30 d of implantation.
(§2) Mice with 100–200 mm^3 tumor volume were used for ex vivo biodistribution studies. For radiotracer pharmacokinetics studies, mice with MOLP8 tumor xenografts received ≈80 µCi (2.96 MBq) [^68Ga]Ga‐AJ206 and were sacrificed at pre‐determined time points (5, 30, 60 and 120 min). Similarly, for dosimetry study, mice with MM1S tumor xenografts received ≈80 µCi (2.96 MBq) of [^68Ga]Ga‐AJ206 and were sacrificed at pre‐determined time points (5, 30, 60, 90 and 120 min). All other mice were injected with ≈50µCi (1.85 MBq) [^68Ga]Ga‐AJ206 and were sacrificed at 60 min. The selected tissues were collected, weighed, counted, and their %ID g^−1 values calculated for biodistribution analysis. The tissues included blood, muscle, tumor, thymus, heart, lung, liver, pancreas, stomach, small intestine, large intestine, spleen, adrenals, kidney, bladder, femur, and brain.

[2] = as above; parameters: species or system NSG mice; details: both sexes, NSG, mouse, 80 uCi, total radioactivity, MOLP8 xenograft mice; for tissue to tissue ratio at 5 min: 5 min p.i.; for tissue to tissue ratio at 0.5 h: 30 min p.i.; for tissue to tissue ratio at 1 h: 60 min p.i.; for tissue to tissue ratio at 2 h: 120 min p.i.
Method: as §1, §2

[3] = Ex vivo biodistribution in mice with RPMI tumor xenografts; details: both sexes, NSG, mouse, 60 min p.i., RPMI xenograft mice; for tissue uptake at 1 h: 50 µCi; for tissue to tissue ratio at 1 h: 50 uCi, total radioactivity
Method: as §1, §2

[4] = 60 min p.i., listed as [68Ga]Ga-AJ206
[5] = tumor/blood, read-out: Tumor/blood ratio
[6] = tumor/muscle, read-out: Tumor/muscle ratio

With `CC[C@H](C)[C@@H]1NC(=O)[C@@H]2CCCN2C(=O)[C@H](Cc2ccccc2)NC(=O)[C@H](CC(=O)O)NC(=O)[C@H](C)NC(=O)[C@@H]2CSCc3cc(cc(c3)CSC[C@H](NC(=O)[C@H](C)NC(=O)CCOCCOCCOCCNC(=O)CN3CCN(CC(=O)O)CCN(CC(=O)O)CC3)C(=O)N[C@@H](C(C)C)C(=O)N3CCC[C@H]3C(=O)N2)CSC[C@@H](C(N)=O)NC(=O)[C@H](Cc2ccc(O)cc2)NC(=O)[C@H](Cc2c[nH]c3ccccc23)NC1=O` [[^68Ga]Ga‐AJ206, metal not drawn] the logD [1] was -1.32 ± 0.08, the uptake in blood (MOLP8 tumor xenografts; 5 min p.i.) was 8.25 ± 0.50 %ID g^−1 and the uptake in femur (MOLP8 tumor xenografts; 5 min p.i.) was 1.42 ± 0.09 %ID g^−1. The uptake in heart (MOLP8 tumor xenografts; 5 min p.i.) was 3.13 ± 0.27 %ID g^−1, the uptake in kidney (MOLP8 tumor xenografts; 5 min p.i.) was 11.17 ± 0.65 %ID g^−1 and the uptake in liver (MOLP8 tumor xenografts; 5 min p.i.) was 21.24 ± 1.31 %ID g^−1. For the same compound, the uptake in lungs (MOLP8 tumor xenografts; 5 min p.i.) was 6.16 ± 0.16 %ID g^−1, the uptake in muscle (MOLP8 tumor xenografts; 5 min p.i.) was 0.92 ± 0.11 %ID g^−1 and the “uptake in small intestine” value (MOLP8 tumor xenografts; 5 min p.i.) was 1.95 ± 0.08 %ID g^−1. For the same compound, the uptake in spleen (MOLP8 tumor xenografts; 5 min p.i.) was 2.28 ± 0.50 %ID g^−1, the uptake in stomach (MOLP8 tumor xenografts; 5 min p.i.) was 1.08 ± 0.07 %ID g^−1 and the uptake in tumor (MOLP8 tumor xenografts; 5 min p.i.) was 2.58 ± 0.18 %ID g^−1. The uptake in blood (MOLP8 tumor xenografts; 30 min p.i.) was 2.07 ± 0.30 %ID g^−1, the uptake in femur (MOLP8 tumor xenografts; 30 min p.i.) was 0.65 ± 0.08 %ID g^−1 and the uptake in heart (MOLP8 tumor xenografts; 30 min p.i.) was 0.83 ± 0.18 %ID g^−1. For the same compound, the uptake in kidney (MOLP8 tumor xenografts; 30 min p.i.) was 17.09 ± 1.77 %ID g^−1, the uptake in liver (MOLP8 tumor xenografts; 30 min p.i.) was 6.39 ± 3.71 %ID g^−1 and the uptake in lungs (MOLP8 tumor xenografts; 30 min p.i.) was 1.86 ± 0.29 %ID g^−1. For the same compound, the uptake in muscle (MOLP8 tumor xenografts; 30 min p.i.) was 0.37 ± 0.05 %ID g^−1, the “uptake in small intestine” value (MOLP8 tumor xenografts; 30 min p.i.) was 0.59 ± 0.14 %ID g^−1 and the uptake in spleen (MOLP8 tumor xenografts; 30 min p.i.) was 0.75 ± 0.14 %ID g^−1. For the same compound, the uptake in stomach (MOLP8 tumor xenografts; 30 min p.i.) was 0.51 ± 0.06 %ID g^−1, the uptake in tumor (MOLP8 tumor xenografts; 30 min p.i.) was 2.91 ± 0.84 %ID g^−1 and the Tumor/blood ratio (MOLP8 tumor xenografts; 60 min p.i.) was 7.20 ± 0.89. The Tumor/muscle ratio (MOLP8 tumor xenografts; 60 min p.i.) was 27.12 ± 2.73, the uptake in blood (MOLP8 tumor xenografts; 60 min p.i.) was 0.56 ± 0.09 %ID g^−1 and the uptake in femur (MOLP8 tumor xenografts; 60 min p.i.) was 0.28 ± 0.07 %ID g^−1. The uptake in heart (MOLP8 tumor xenografts; 60 min p.i.) was 0.29 ± 0.03 %ID g^−1, the uptake in kidney (MOLP8 tumor xenografts; 60 min p.i.) was 16 %ID g^−1 and 16.65 ± 2.52 %ID g^−1 and the uptake in liver (MOLP8 tumor xenografts; 60 min p.i.) was 1.22 ± 0.09 %ID g^−1. The uptake in lungs (MOLP8 tumor xenografts; 60 min p.i.) was 0.71 ± 0.10 %ID g^−1, the uptake in muscle (MOLP8 tumor xenografts; 60 min p.i.) was 0.14 ± 0.02 %ID g^−1 and the “uptake in small intestine” value (MOLP8 tumor xenografts; 60 min p.i.) was 0.65 ± 0.09 %ID g^−1. The uptake in spleen (MOLP8 tumor xenografts; 60 min p.i.) was 0.39 ± 0.03 %ID g^−1, the uptake in stomach (MOLP8 tumor xenografts; 60 min p.i.) was 0.25 ± 0.06 %ID g^−1 and the uptake in tumor (MOLP8 tumor xenografts; 60 min p.i.) was 3.76 ± 0.25 %ID g^−1. The uptake in blood (MOLP8 tumor xenografts; [4]) was 0.56±0.09 %ID g^−1, the uptake in femur (MOLP8 tumor xenografts; [4]) was 0.28±0.07 %ID g^−1 and the uptake in heart (MOLP8 tumor xenografts; [4]) was 0.29±0.03 %ID g^−1. The uptake in kidney (MOLP8 tumor xenografts; [4]) was 16.65±2.52 %ID g^−1, the uptake in liver (MOLP8 tumor xenografts; [4]) was 1.22±0.09 %ID g^−1 and the uptake in lungs (MOLP8 tumor xenografts; [4]) was 0.71±0.10 %ID g^−1. The uptake in muscle (MOLP8 tumor xenografts; [4]) was 0.14±0.02 %ID g^−1, the “uptake in small intestine” value (MOLP8 tumor xenografts; [4]) was 0.65±0.09 %ID g^−1 and the uptake in spleen (MOLP8 tumor xenografts; [4]) was 0.39±0.03 %ID g^−1. The uptake in stomach (MOLP8 tumor xenografts; [4]) was 0.25±0.06 %ID g^−1, the uptake in tumor (MOLP8 tumor xenografts; [4]) was 3.76±0.25 %ID g^−1 and the uptake in blood (MOLP8 tumor xenografts; 120 min p.i.) was 0.05 ± 0.01 %ID g^−1. For the same compound, the uptake in femur (MOLP8 tumor xenografts; 120 min p.i.) was 0.07 ± 0.01 %ID g^−1, the uptake in heart (MOLP8 tumor xenografts; 120 min p.i.) was 0.05 ± 0.01 %ID g^−1 and the uptake in kidney (MOLP8 tumor xenografts; 120 min p.i.) was 13.75 ± 0.23 %ID g^−1. For the same compound, the uptake in liver (MOLP8 tumor xenografts; 120 min p.i.) was 0.42 ± 0.01 %ID g^−1, the uptake in lungs (MOLP8 tumor xenografts; 120 min p.i.) was 0.16 ± 0.03 %ID g^−1 and the uptake in muscle (MOLP8 tumor xenografts; 120 min p.i.) was 0.07 ± 0.04 %ID g^−1. The “uptake in small intestine” value (MOLP8 tumor xenografts; 120 min p.i.) was 0.18 ± 0.04 %ID g^−1, the uptake in spleen (MOLP8 tumor xenografts; 120 min p.i.) was 0.17 ± 0.02 %ID g^−1 and the uptake in stomach (MOLP8 tumor xenografts; 120 min p.i.) was 0.03 ± 0.01 %ID g^−1. The uptake in tumor (MOLP8 tumor xenografts; 120 min p.i.) was 1.46 ± 0.02 %ID g^−1, the “blood pool activity cleared” value (MOLP8 tumor xenografts; by 60 min) was ~95% and the tissue to tissue ratio at 5 min [2, 5] was 0.32 ± 0.04. The tissue to tissue ratio at 0.5 h [2, 5] was 1.43 ± 0.46, the tissue to tissue ratio at 1 h [2, 5] was > 7 and the tissue to tissue ratio at 2 h [2, 5] was 19.7 ± 6.57. For the same compound, the tissue to tissue ratio at 5 min [2, 6] was 2.94 ± 0.47, the tissue to tissue ratio at 0.5 h [2, 6] was 7.28 ± 1.89 and the tissue to tissue ratio at 1 h [2, 6] was > 25. It also gave a tissue to tissue ratio at 2 h [2, 6] of 27.4 ± 18.6, a tissue uptake at 1 h ([3]; blood, read-out: uptake in blood) of 0.98 ± 0.48 %ID/g and a tissue uptake at 1 h ([3]; heart, read-out: uptake in heart) of 0.63 ± 0.21 %ID/g. For the same compound, the tissue uptake at 1 h ([3]; kidney, read-out: uptake in kidney) was 17.8 ± 3.48 %ID/g, the tissue uptake at 1 h ([3]; liver, read-out: uptake in liver) was 1.27 ± 0.3 %ID/g and the tissue uptake at 1 h ([3]; lung, read-out: uptake in lung) was 1 ± 0.26 %ID/g. For the same compound, the tissue uptake at 1 h ([3]; muscle, read-out: uptake in muscle) was 0.49 ± 0.07 %ID/g, the tissue uptake at 1 h ([3]; pancreas, read-out: uptake in pancreas) was 0.48 ± 0.15 %ID/g and the tissue uptake at 1 h ([3]; small intestine, read-out: uptake in small intestine) was 0.59 ± 0.25 %ID/g. The tissue uptake at 1 h ([3]; spleen, read-out: uptake in spleen) was 1.09 ± 0.15 %ID/g, the tissue uptake at 1 h ([3]; stomach, read-out: uptake in stomach) was 0.45 ± 0.07 %ID/g and the tissue uptake at 1 h ([3]; tumor, read-out: uptake in tumor) was 1.78 ± 0.36 %ID/g. It also gave a tissue to tissue ratio at 1 h ([3]; tumor/blood, read-out: Tumor/Blood ratio) of 2.69 ± 0.65 and a tissue to tissue ratio at 1 h ([3]; tumor/muscle, read-out: Tumor/Muscle ratio) of 3.72 ± 0.73.
